| melting point | SMILES |
| --- | --- |
| 176 to 179 °C | O=C1NN=C(Cc2ccccc2)C1=Cc1cn(CCCCO)c2ncccc12 [Example 334, 3-Benzyl-4-{[1-(4-hydroxybutyl)-7-azaindol-3-yl]methylene}-2-pyrazolin-5-one] |
| 246 to 247 °C | Cn1cc(C=C2C(=O)NN=C2N)c2ccccc21 [Example 299, 3-Amino-4-[(1-methylindol-3-yl)methylene]-2-pyrazolin-5-one] |
| 199 to 201 °C | CC(C)OC1=NNC(=O)C1=Cc1cccn1C [Example 43, 3-Isopropoxy-4-[(1-methylpyrrol-2-yl)methylene]-2-pyrazolin-5-one] |
| 290 °C (dec.) | Cc1c(CCC(=O)O)c[nH]c1C=C1C(=O)NN=C1C1CC1 [Example 99, 4-{[4-(2-Carboxyethyl)-3-methylpyrrol-2-yl]methylene}-3-cyclopropyl-2-pyrazolin-5-one] |
| 229 to 231 °C | Cc1c[nH]c(C=C2C(=O)NN=C2C(C)C)c1CCC(=O)O [Example 55, 4-{(3-(2-Carboxyethyl)-4-methylpyrrol-2-yl]methylene}-3-isopropyl-2-pyrazolin-5-one] |
| 158 to 160 °C | CCOC1=NNC(=O)C1=Cc1[nH]c(C)c(C(=O)NCCN(C)C)c1C [Example 155, 4-{[3,5-Dimethyl-4-(2-dimethylaminoethylaminocarbonyl)pyrrol-2-yl)methylene}-3-ethoxy-2-pyrazolin-5-one] |
| 242 to 245 °C | O=C1NN=C(CCc2ccc(O)cc2)C1=Cc1cc2ccccc2[nH]1 [Example 307, 3-(4-Hydroxyphenylethyl)-4-[(indol-2-yl)methylene]-2-pyrazolin-5-one] |
| 168 to 170 °C | CCc1c(C)[nH]c(C=C2C(=O)NN=C2CCc2ccccc2)c1C [Example 37, 4-[(3,5-Dimethyl-4-ethylpyrrol-2-yl)methylene]-3-phenylethyl-2-pyrazolin-5-one] |
| 284 to 286 °C | O=C1NN=C(COc2ccccc2)C1=Cc1c[nH]c2ccccc12 [Example 213, 4-[(Indol-3-yl)methylene]-3-phenyloxymethyl-2-pyrazolin-5-one] |
| 251 to 252 °C | O=C1NN=C(Nc2ccc(F)cc2)C1=Cc1c[nH]c2ccccc12 [Example 242, 3-(4-Fluorophenylamino)4-[(indol-3-yl)methylene]--2-pyrazolin-5-one] |
| 150 to 152 °C | O=C1NN=C(C2CCC2)C1=Cc1ccc[nH]1 [Example 57, 3-Cyclobutyl-4-[(pyrrol-2-yl)methylene]-2-pyrazolin-5-one] |
| 155 to 157 °C | O=C1NN=C(c2cccnc2)C1=Cc1cc2ccccc2[nH]1 |
| 204 to 206 °C | COc1ccc(CC2=NNC(=O)C2=Cc2cn(CCCCO)c3ccccc23)cc1 [Example 224, 4-{[1-(4-hydroxybutyl)indol-3-yl]methylene}-3-(4-methoxybenzyl)-2-pyrazolin-5-one] |
| 245 to 247 °C | Cc1cccc2c(C=C3C(=O)NN=C3OC(C)C)cn(C)c12 [Example 294, 4-[(1,7-Dimethylindol-3-yl)methylene]-3-isopropoxy-2-pyrazolin-5-one] |
| 259 to 260 °C | CC(C)OC1=NNC(=O)C1=Cc1c[nH]cn1 [Example 366, 4-[(Imidazol-4-yl)methylene]-3-isopropoxy-2-pyrazolin-5-one] |
| 230 to 232 °C | O=C1NN=C(c2cnccn2)C1=Cc1cc(C(=O)O)c[nH]1 [Example 137, 4-[(4-Carboxypyrrol-2-yl)methylene]-3-pyrazinyl-2-pyrazolin-5-one] |
| 212 to 216 °C | CCOC(=O)c1c[nH]c(C=C2C(=O)NN=C2OCC)c1 [Example 148, 3-Ethoxy-4-[(4-ethoxycarbonylpyrrol-2-yl)methylene]-2-pyrazolin-5-one] |

Continued, compound first:

| SMILES | melting point |
| --- | --- |
| COc1ccc2c(c1)c(C=C1C(=O)NN=C1C1CC1)cn2C [Example 288, 3-Cyclopropyl-4-[(5-methoxy-1-methylindol-3-yl)methylene]-2-pyrazolin-5-one] | 236 to 238 °C |
| Nc1ccc(CCC2=NNC(=O)C2=Cc2cc3ccccc3[nH]2)cc1 [Example 308, 3-(4-Aminophenylethyl)-4-[(indol-2-yl)methylene]-2-pyrazolin-5-one] | 187 to 189 °C |
| Cc1cccc2c(C=C3C(=O)NN=C3OC(C)C)c[nH]c12 [Example 245, 3-Isopropoxy-4-[(7-methylindol-3-yl)methylene]-2-pyrazolin-5-one] | 254 to 256 °C |
| CCOC1=NNC(=O)C1=Cc1[nH]c(C)c(C(=O)CN(C)C)c1C [Example 189, 4-[(3,5-Dimethyl-4-dimethylaminoacetylpyrrol-2-yl)methylene]-3-ethoxy-2-pyrazolin-5-one] | 198 °C |
| COc1ccc(CC2=NNC(=O)C2=Cc2c[nH]c3ccccc23)cc1OC [Example 227, 3-(3,4-dimethoxybenzyl)-4-[(indol-3-yl)methylene]-2-pyrazolin-5-one] | 282 to 284 °C |
| Cc1[nH]c(C=C2C(=O)NN=C2c2cccs2)c(C)c1CN(C)C [Example 143, 4-[(3,5-Dimethyl-4-dimethylaminomethylpyrrol-2-yl)methylene]-3-(2-thienyl)-2-pyrazolin-5-one] | 208 to 210 °C |
| CCOC(=O)c1c(C)[nH]c(C=C2C(=O)NN=C2c2cccnc2)c1C [Example 96, 4-[(3,5-dimethyl-4-ethoxycarbonylpyrrol-2-yl)methylene]-3-(3-pyridyl)-2-pyrazolin-5-one] | 247 to 249 °C |
| CCc1ccc(C=C2C(=O)NN=C2C2CC2)[nH]1 [Example 74, 3-Cyclopropyl-4-[(5-ethylpyrrol-2-yl)methylene]-2-pyrazolin-5-one] | 163 to 165 °C |
| O=C1NN=C(C2CCC2)C1=Cc1cn(CCCCO)c2ccccc12 [Example 286, 3-Cyclobutyl-4-{[1-(4-hydroxybutyl)indol-3-yl]methylene}-2-pyrazolin-5-one] | 220 to 222 °C |
| Cc1cc(C)c(C=C2C(=O)NN=C2c2ccccn2)[nH]1 [Example 124, 4-[(3,5-Dimethylpyrrol-2-yl)methylene]-3-(2-pyridyl)-2-pyrazolin-5-one] | 228 to 230 °C |
| Cc1[nH]c(C=C2C(=O)NN=C2c2cnccn2)c(C)c1CCN(C)C [Example 191, 4-{[3,5-Dimethyl-4-(2-dimethylaminoethyl)pyrrol-2-yl]methylene}-3-pyrazinyl-2-pyrazolin-5-one] | 216 °C |
| CC1(C)C(C2=NNC(=O)C2=Cc2c[nH]c3ccccc23)C1(C)C [Example 264, 4-[(Indol-3-yl)methylene]-3-(2,2,3,3-tetramethylcyclopropyl)-2-pyrazolin-5-one] | 296 to 298 °C |
| CC(C)OC1=NNC(=O)C1=Cc1cn(CCCCO)c2ccccc12 [Example 238, 4-{[1-(4-Hydroxybutyl)indol-3-yl]methylene}-3-isopropoxy-2-pyrazolin-5-one] | 210 to 212 °C |
| CCOC(=O)c1c(C)[nH]c(C=C2C(=O)NN=C2OC(C)C)c1C [Example 49, 4-[(3,5-Dimethyl-4-ethoxycarbonylpyrrol-2-yl)methylene]-3-isopropoxy-2-pyrazolin-5-one] | 226 to 228 °C |
| CN(C)C(=O)CCC1=NNC(=O)C1=Cc1c[nH]c2ccccc12 [Example 260, 3-(2-Dimethylaminocarbonylethyl)-4-[(indol-3-yl)methylene]-2-pyrazolin-5-one] | 258 to 260 °C |
| CCN(CC)Cc1c(C)[nH]c(C=C2C(=O)NN=C2c2cnccn2)c1C [Example 166, 4-[(4-Diethylaminomethyl-3,5-dimethylpyrrol-2-yl)methylene]-3-pyrazinyl-2-pyrazolin-5-one] | 242 to 244 °C |
| Cc1[nH]c(C=C2C(=O)NN=C2C2CC2)c(C)c1CNC(=O)C(F)(F)F [Example 131, 3-Cyclopropyl-4-[(3,5-dimethyl-4-trifluoroacetamidomethylpyrrol-2-yl)methylene]-2-pyrazolin-5-one] | 278 to 280 °C |
| CCc1c(C)[nH]c(C=C2C(=O)NN=C2CCc2ccc(C(N)=O)cc2)c1C [Example 47, 3-(4-Carbamoylphenylethyl)-4-[(3,5-dimethyl-4-ethylpyrrol-2-yl)methylene]-2-pyrazolin-5-one] | 297 to 299 °C |
| CC(C)OC1=NNC(=O)C1=Cc1cn(C)c2ccccc12 [Example 248, 3-Isopropoxy-4-[(1-methylindol-3-yl)methylene]-2-pyrazolin-5-one] | 239 to 240 °C |
| CCc1c(C)[nH]c(C=C2C(=O)NN=C2C2CCOC2)c1C (centres unmarked) [Example 94, 4-[(3,5-Dimethyl-4-ethylpyrrol-2-yl)methylene]-3-(tetrahydrofuran-3-yl)-2-pyrazolin-5-one] | 163 to 165 °C |
| O=C1NN=C(CCc2ccc(O)cc2)C1=Cc1cn(CCCCO)c2ncccc12 [Example 342, 4-{[1-(4-Hydroxybutyl)-7-azaindol-3-yl]methylene}-3-(4-hydroxyphenylethyl)-2-pyrazolin-5-one] | 211 to 212 °C |
| Cc1c(CCC(=O)O)c[nH]c1C=C1C(=O)NN=C1Cc1ccccc1 [Example 7, 3-Benzyl-4-{[4-(2-carboxyethyl)-3-methylpyrrol-2-yl]methylene}-2-pyrazolin-5-one] | 270 to 272 °C |
| Cc1n[nH]cc1C=C1C(=O)NN=C1C1CC1 [Example 363, 3-Cyclopropyl-4-[(3-methylpyrazol-4-yl)methylene]-2-pyrazolin-5-one] | 265 to 267 °C |
| COc1ccc(OCC2=NNC(=O)C2=Cc2ccc[nH]2)cc1 [Example 3, 3-(4-Methoxyphenyloxymethyl)-4-[(pyrrol-2-yl)methylene]-2-pyrazolin-5-one] | 177 to 180 °C |
| Cc1[nH]c(C=C2C(=O)NN=C2c2cnccn2)c(C)c1CN(C)C.O=C(O)/C=C\C(=O)O [Example 122, 4-[(3,5-Dimethyl-4-dimethylaminomethylpyrrol-2-yl)methylene]-3-pyrazinyl-2-pyrazolin-5-one maleate] | 206 to 210 °C |
| O=C1NN=C(CCc2ccccc2)C1=Cc1c[nH]c2ccccc12 [Example 217, 4-[(Indol-3-yl)methylene]-3-phenylethyl-2-pyrazolin-5-one] | 268 to 270 °C |
| Cc1ccc(CC2=NNC(=O)C2=Cc2c[nH]c3ncccc23)cc1 [Example 340, 4-[(7-Azaindol-3-yl)methylene]-3-(4-methylbenzyl)-2-pyrazolin-5-one] | > 300 °C |
